Experimental data: US20220089602A1, “COMPOUNDS THAT INDUCE FERROPTIC CELL DEATH” (The Board of Trustees of the University of Illinois, priority 2019, published 2022)
“Also recorded” adds a separate entry of the source.

Key:
[1] = test system: 4T1 triple negative breast cancer cells; test: 4T1 syngeneic subcutaneous tumor model, immunocompetent mice; format: in vivo; details: 50 mg/kg i.p., twice a week, five doses, Balb/c
Description: The protocol was approved by the IACUC at the University of Illinois at Urbana-Champaign (Protocol Number: 17192). 9-week old female Balb/C or SCID mice (Charles River) were lightly sedated with i.p. xylazine/ketamine/saline solution. Following sedation, 4T1 murine breast cancer cells suspended in chilled HBSS (100 μL of 4×10^6 cells/mL) were injected subcutaneously into the right flank of shaved and sedated mice using an insulin syringe. On day 8 after inoculation, mice were randomized with 7 mice per group for vehicle or ferroptocide treatment. Vehicle (PEG400) or ferroptocide (50 mg/kg) was administered intraperitoneally as a PEG400 solution twice a week for 5 times. Tumor measurements were performed every 3 or 4 days using a caliper and tumor volume was calculated using the equation (0.5×l×w^2). On day 23 after the 4T1 cells inoculation, mice were sacrificed. Tumors were then surgically removed, and their mass was measured.

GPX4 = target: T1, GPX4 (Homo sapiens, UniProt P36969); test: GPX4 LC-MS based activity assay (PCOOH); format: cell-based; details: 10 μM, 1 hr, ES-2 cells
T1 construct: endogenous in cells; host or cells: ES-2 cells
T1 sequence (P36969 whole entry): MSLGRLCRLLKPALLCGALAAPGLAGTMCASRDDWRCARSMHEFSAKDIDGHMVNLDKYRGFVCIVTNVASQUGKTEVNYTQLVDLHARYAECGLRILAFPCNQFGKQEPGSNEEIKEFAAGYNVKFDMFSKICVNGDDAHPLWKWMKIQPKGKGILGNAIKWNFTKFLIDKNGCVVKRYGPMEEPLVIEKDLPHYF
Description: 1 million ES-2 cells/well, 6 well plate were allowed to attach overnight and then treated with DMSO, 10 μM of each compound: ferroptocide, raptinal, and RSL3 for 1 hr. GPX4 enzymatic activity assay was performed with a GPX4 specific substrate, phosphatidylcholine hydroperoxide (PC—OOH) as described previously with minor modifications (Cell 156, 317-331, (2014)). PCOOH was prepared as reported by Roveri and coworkers (Enzymol. Vol. 233 202-212 (Academic Press, 1994)) but using soybean lipoxidase type I-B (L7395, Milipore Sigma). Cells were washed with PBS and lysed by liquid nitrogen freeze-thaw method in the assay buffer (137 mM NaCl, 2.7 mM KCl, 8 mM Na2HPO4, 2 mM KH2PO4, 1 mM EDTA, 0.1 mM DFO; pH 7.4). Cell lysates were cleared by centrifugation at 14,000 rpm for 10 min at 4° C. Bradford assay was used to determine protein concentration; 200 μg of protein or assay buffer (PCOOH control sample) was mixed with 10 μL PC—OOH in methanol, 5 mM reduced glutathione, and assay buffer to a final reaction volume of 500 μL. The reaction mixture was incubated at 37° C. for 15 mins and extracted with 250 μL chloroform:methanol (2:1) solution. The lipid extract was evaporated under nitrogen and re-dissolved in 100% methanol before injecting into the LC-MS/MS instrument for PCOOH detection.

A549 cells = test: Speed of cell death, AV/PI flow cytometry; format: cell-based; details: each at 10 μM, A549 (K-RAS mutant)
Description: (§1) ES-2, HCT 116, Mia PaCa-2, A549, and 4T1 cells (1×10^5 cells/mL) were plated overnight in 12 well plates, prior to addition of compounds. For protection studies, samples were pre-treated with each protecting agent such as 25 μM Q-VD-OPh, 250 μM trolox, 2 μM ferrostatin-1, 5 mM NAC-1 (neutralized pH), or 100 μM deferoxamine (DFO) for two hours or 1 hr (NAC-1) before compound addition. Cells were incubated for the appropriate times and harvested for flow cytometry analysis. Cell pellets were resuspended in binding buffer (10 mM HEPES, pH 7.4, 140 mM NaCl, 2.5 mM CaCl2) containing 2 μg/mL propidium iodide and 5 μL/mL Annexin V-FITC conjugate antibody and analyzed for cell viability after gating for forward and side scattering. Ten thousand events were collected per sample in BD LSR II Flow Cytometer (BD Bioscience) and FCS express V6, De Novo software was used to perform experimental analysis.

HCT 116 cells = test: Speed of cell death, AV/PI flow cytometry; format: cell-based
Description: as §1

ES-2 cells = test: Speed of cell death, AV/PI flow cytometry; format: cell-based; details: 10 μM, ES-2, AV/PI
Description: as §1

Mia PaCa-2 cells = test: Speed of cell death, AV/PI flow cytometry; format: cell-based; details: 10 μM, Mia PaCa-2, AV/PI
Description: as §1

HT-29 cells = test: RNA sequencing of treated cells; format: cell-based; details: 10 μM, 6 hr
Description: Total RNA was extracted by RNeasy Kit (QIAGEN) and digested with DNase (QIAGEN) from n=2 samples per condition (DMSO, 10 μM ferroptocide cells treated for 6 hr). RNA quality was assessed with a 2100 Agilent Bioanalyzer prior to library preparation. The RNAseq libraries were prepared using the TruSeq Stranded mRNAseq Sample Prep kit (version 1) following manufacturer's instruction (Illumina). Libraries were then quantified, pooled, and sequenced by single-end 150 base pairs using the Illumina HiSeq 4000 platform at the Roy J. Carver Biotechnology center. FASTQ files were generated and demultiplexed with the bcl2FASTQ v2.17.1.14 Conversion Software (Illumina). Libraries were sequenced at an average depth of 40-50 million reads per sample. Trimmomatic (v0.36) was utilized to remove sequencing adapters, low-quality bases (PHRED score <28), and reads less than 30 bases in length. Pseudo-alignment and transcript-level counting to NCBI's GRCh38.p11 transcriptome was then performed with Salmon (v 0.8.2) in quasi-mapping mode while correcting for sequence-specific and GC biases, and generating 30 bootstraps. Counts summarized to the gene level (NCBI annotation release 108) using tximport (v 1.6.0) and the “lengthScaledTPM” method. The counts were normalized using the TMM method from edgeR (v 3.20.5) and then transformed to log 2 counts per million (log CPM) with prior.count=3. Genes without at least log CPM>log 2(0.5) in at least 3 samples were filtered out, leaving 16,743 genes for differential expression testing. TMM normalization was re-done after filtering and then limma's (v 3.34.5) voom method was used to find differentially expressed genes for the pairwise comparisons of treatment vs. control in A549, and treatment vs. control in HT29 (batch 2 and 3, 8 samples total, 6 hr), and the interaction between treatment and cell line. P values were adjusted for multiple hypothesis testing with the Benjamini-Hochberg method to generate false discovery rates. Gene set enrichment analysis was done using ESGEA (v 1.6.1) for the Gene Ontology BP, CC and MF gene sets, KEGG pathway gene sets, and Pathway gene sets. The RNA sequencing data have been deposited to the GEO repository with the accession number GSE126868.

C[C@@H]1CC[C@@]23C[C@H](O)C(=O)[C@@]2(O)[C@]1(C)[C@H](OC(=O)CCl)C[C@@H](C1=CCn2c(=O)n(-c4ccccc4)c(=O)n2C1)[C@@H]3C [Compound P18, ferroptocide]
effect on subcutaneous 4T1 tumor growth (in words) [1]: inhibits subcutaneous 4T1 tumor growth
tumor growth retardation (tumor volume) ([1]; compared to vehicle): 40%
GPX4 inhibition (GPX4): did not result in GPX4 inhibition; also recorded: does not cause direct GPX4 inhibition
cell death versus erastin and RSL3 (A549 cells): inducing more quantitative cell death than the other tool compounds
time to 50% cell death (HCT 116 cells; 10 μM, HCT 116, AV/PI): 7 h
cell death versus erastin and RSL3 (HCT 116 cells; each at 10 μM, HCT 116 (K-RAS mutant)): inducing more quantitative cell death than the other tool compounds
time to 50% cell death (ES-2 cells): 1 h
time to 50% cell death (Mia PaCa-2 cells; listed as Ferroptocide): 2 h
time to 50% cell death (Mia PaCa-2 cells; listed as ferroptocide): 1.5 h
genes involved in ferroptosis modulated (HT-29 cells; FDR ≤0.05): 35/40
ATF3 upregulation (RNA-seq) (HT-29 cells; HT-29): 11.5 fold
CHAC1 upregulation (RNA-seq) (HT-29 cells; HT-29): 9.8 fold
DDIT3 upregulation (RNA-seq) (HT-29 cells; HT-29): 22.5 fold
DDIT4 upregulation (RNA-seq) (HT-29 cells; HT-29): 11.3 fold
GCLC upregulation (RNA-seq) (HT-29 cells; HT-29): 3.5 fold
GCLM upregulation (RNA-seq) (HT-29 cells; HT-29): 4.9 fold
SLC7A11 upregulation (RNA-seq) (HT-29 cells; HT-29): 8.1 fold
